The values that follow come from patent US6194399A, “Aryldiamine derivatives useful as antibacterial agents” (Scriptgen Pharmaceuticals, Inc., priority 1999, dated 2001).

The target of experiment [1] is purified RNA polymerase derived from S. aureus. The experiment is described as follows: in vitro transcription reaction, RNA polymerase inhibition. In kind it is biochemical. The procedure: (§1) RNA polymerase inhibition activity of a compound can be detected by including the compound in an in vitro transcription reaction and comparing the level of transcription that occurs in the presence and absence of the compound. The RNA polymerase may be from a bacterial source or, as a control, from an animal source. A typical transcription reaction (50μl) contains transcription buffer (50 mM Tris-HCl, pH 8.0, 200 mM KCl, 10 mM MgCl2,10 mM DTT and 1.5 μM BSA); 1 μg of DNA template; 4 μM UTP containing 5 μCi of [α-^2-32 P] UTP; 400 μM each of ATP, GTP, and CTP; and RNA polymerase. After incubation for 60 minutes at 25° C., the reaction is terminated with 100 μl 10% TCA, which also precipitates the newly transcribed RNA, and incorporation of radioactivity into RNA is quantified. The IC50 (expressed in μg/ml) is the concentration of a compound that inhibits RNA polymerase activity by 50%.
(§2) The compounds of the invention were included at a range of concentrations in in vitro transcription reactions containing purified RNA polymerase derived from either S. aureus, E. coli, or human, and template DNA comprising a pTaq promoter. The reaction conditions and analytical method are described above.

In experiment [2] the target is purified RNA polymerase derived from E. coli (Escherichia coli, UniProt P0A7Z4+P0A8T7+P0A8V2). The description is as above. The class given is biochemical. The procedure: as §1, §2
For experiment [3], the system named is wild-type S. aureus. The experiment is described as follows: MIC, broth microdilution assay. The class given is cell-based. The following applies: Staphylococcus aureus. The procedure: (§3) The antimicrobial activity of a compound or formulation according to the invention is determined by exposing a culture comprising a bacterial species to different concentrations of the compound or formulation and monitoring the effects on growth relative to a control culture not exposed to the compound. Any method known in the art may be used to assess bacterial growth. Antimicrobial effects are expressed as Minimal Inhibitory Concentration (MIC) and Minimum Bactericidal Concentration (MBC).
(§4) The MIC may be expressed as a range between the concentration at which no growth is observed and the concentration of the dilution which immediately follows.
(§5) Typically, MIC is measured using a broth microdilution assay as follows. Dilution of candidate antimicrobial compounds in culture medium is performed in a sterile, covered 96-well microtiter plate with flat bottom wells (Costar #9017). The final concentrations of the compounds are typically 100, 50, 25, 12.5, 6.25, 3.12, 1.56, 0.78, 0.39, 0.20, 0.10, and 0.05 μg/mL, respectively. Culture medium only (containing no bacteria) is also included as a negative control for each plate. Ampicillin and rifampin are used as positive controls against all bacterial strains in every experiment.
(§6) The overnight culture of a single colony is diluted in sterile medium so that, after inoculation, each well contains approximately 5×10^5CFU/mL. Within 15 minutes of preparation, […] of the adjusted inoculum suspension is added to the microliter plate. Each well is diluted with an equal volume of the antimicrobial compounds or control solution. The inoculated microtiter plate is typically incubated at 35° C. for 16-20 hours. The turbidity of each well is determined by measuring the absorbance at 595 nm using a BioRad Model 3550-UV microplate reader.
(§7) The antimicrobial activities of the compounds of the invention, expressed as MIC and MBC, were determined as described above, using as tester strains wild-type S. aureus, rifampicin-resistant S. aureus, wild-type E. coli, and E. coli cells that had been permeabilized.
Background: Dilution methods test growth across graded concentrations, often in twofold steps.

In experiment [4] the test system is wild-type E. coli. The experiment is described as follows: MIC, broth microdilution assay. The class given is cell-based. The following applies: Escherichia coli. The procedure: as §3, §4, §5, §6, §7
The subject of experiment [5] is rifampicin-resistant S. aureus. The experiment is described as follows: MIC, broth microdilution assay. The class given is cell-based. The following applies: Staphylococcus aureus, read-out: MIC rif^R -S. aureus. The procedure:
as §3, §4, §5, §6, §7

Experiment [6] concerns wild-type S. aureus. The experiment is described as follows: MBC determination. The class given is cell-based. The following applies: Staphylococcus aureus. The procedure: as §3
(§8) The minimum bactericidal concentration (MBC) is defined as the concentration of antimicrobial agent from which no colonies grow on petri plates or in the medium. […] Typically, the wells from a MIC microliter plate are made using a 96-well inoculation grid into a fresh microliter plate containing 100 μL Mueller-Hinton broth per well. The MBC plates are incubated at 37° C. for 16-20 hrs and the MBC values are determined.
as §7

Experiment [7] deals with E. coli cells that had been permeabilized. The experiment is described as follows: MBC determination. The following applies: Escherichia coli. The class given is cell-based. The procedure: as §3, §8, §7
Experiment [8] relates to wild-type E. coli. The experiment is described as follows: MBC determination. In kind it is cell-based. The following applies: Escherichia coli. The procedure:
as §3, §8, §7

Another experiment concerns the target human pol II (Homo sapiens, UniProt P24928+P30876). The experiment is described as follows: in vitro transcription reaction, RNA polymerase inhibition. In kind it is biochemical. The procedure:
RNA polymerase inhibition activity of a compound can be detected by including the compound in an in vitro transcription reaction and comparing the level of transcription that occurs in the presence and absence of the compound. The RNA polymerase may be from a bacterial source or, as a control, from an animal source. […] UTP; 400 μM each of ATP, GTP, and CTP; and RNA polymerase. After incubation for 60 minutes at 25° C., the reaction is terminated with 100 μl 10% TCA, which also precipitates the newly transcribed RNA, and incorporation of radioactivity into RNA is quantified.
In vitro and/or in vivo criteria may used to determine specificity. That is, the inhibitory activity of a particular compound towards an animal RNA polymerase may be measured in parallel with a bacterial RNA polymerase.
as §2

For experiment [9], the system named is E. coli cells that had been permeabilized. The experiment is described as follows: MIC, broth microdilution assay. The following applies: Escherichia coli, read-out: MIC E. coli*. The class given is cell-based. The procedure: Within 15 minutes of preparation, […] of the adjusted inoculum suspension is added to the microliter plate.

Converted amounts (≈) assume the structure as drawn. Where two headings read alike, the source gives them in different places.

Sequence of purified RNA polymerase derived from E. coli (P0A8V2 whole entry): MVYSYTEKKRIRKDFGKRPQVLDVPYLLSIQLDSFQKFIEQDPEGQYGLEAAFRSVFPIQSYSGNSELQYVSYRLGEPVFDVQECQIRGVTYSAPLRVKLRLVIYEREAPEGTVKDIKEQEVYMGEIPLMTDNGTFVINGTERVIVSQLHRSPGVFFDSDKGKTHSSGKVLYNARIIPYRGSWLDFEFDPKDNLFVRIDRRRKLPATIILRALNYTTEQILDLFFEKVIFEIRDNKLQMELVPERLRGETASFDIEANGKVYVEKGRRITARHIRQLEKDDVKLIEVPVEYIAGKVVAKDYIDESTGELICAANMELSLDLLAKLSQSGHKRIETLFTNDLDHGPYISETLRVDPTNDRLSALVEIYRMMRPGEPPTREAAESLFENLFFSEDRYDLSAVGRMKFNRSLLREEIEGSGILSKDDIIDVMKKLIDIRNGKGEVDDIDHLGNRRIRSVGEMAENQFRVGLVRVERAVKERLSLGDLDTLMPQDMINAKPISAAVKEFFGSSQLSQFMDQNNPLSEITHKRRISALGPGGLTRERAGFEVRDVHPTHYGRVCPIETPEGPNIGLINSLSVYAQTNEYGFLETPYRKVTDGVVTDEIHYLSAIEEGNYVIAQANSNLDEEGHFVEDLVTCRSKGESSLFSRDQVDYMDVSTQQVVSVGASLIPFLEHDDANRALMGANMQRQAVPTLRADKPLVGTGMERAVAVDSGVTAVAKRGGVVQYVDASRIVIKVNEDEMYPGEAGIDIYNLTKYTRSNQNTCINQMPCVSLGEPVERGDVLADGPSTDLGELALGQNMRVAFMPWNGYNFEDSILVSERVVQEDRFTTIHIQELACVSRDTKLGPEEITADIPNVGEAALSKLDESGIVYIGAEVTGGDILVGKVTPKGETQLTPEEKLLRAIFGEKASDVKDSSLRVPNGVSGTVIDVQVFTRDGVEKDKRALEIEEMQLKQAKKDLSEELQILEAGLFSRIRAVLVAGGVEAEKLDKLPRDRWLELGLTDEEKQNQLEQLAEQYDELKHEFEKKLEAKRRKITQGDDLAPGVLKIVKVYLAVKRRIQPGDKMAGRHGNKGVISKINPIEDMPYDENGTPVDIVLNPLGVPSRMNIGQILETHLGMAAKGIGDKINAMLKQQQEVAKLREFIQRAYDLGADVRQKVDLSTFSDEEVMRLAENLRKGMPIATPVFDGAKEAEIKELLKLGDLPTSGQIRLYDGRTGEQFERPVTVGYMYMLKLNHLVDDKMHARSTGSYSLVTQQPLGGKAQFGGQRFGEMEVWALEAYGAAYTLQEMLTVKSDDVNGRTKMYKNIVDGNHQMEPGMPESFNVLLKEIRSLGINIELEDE
Sequence of purified RNA polymerase derived from E. coli (P0A8T7 whole entry): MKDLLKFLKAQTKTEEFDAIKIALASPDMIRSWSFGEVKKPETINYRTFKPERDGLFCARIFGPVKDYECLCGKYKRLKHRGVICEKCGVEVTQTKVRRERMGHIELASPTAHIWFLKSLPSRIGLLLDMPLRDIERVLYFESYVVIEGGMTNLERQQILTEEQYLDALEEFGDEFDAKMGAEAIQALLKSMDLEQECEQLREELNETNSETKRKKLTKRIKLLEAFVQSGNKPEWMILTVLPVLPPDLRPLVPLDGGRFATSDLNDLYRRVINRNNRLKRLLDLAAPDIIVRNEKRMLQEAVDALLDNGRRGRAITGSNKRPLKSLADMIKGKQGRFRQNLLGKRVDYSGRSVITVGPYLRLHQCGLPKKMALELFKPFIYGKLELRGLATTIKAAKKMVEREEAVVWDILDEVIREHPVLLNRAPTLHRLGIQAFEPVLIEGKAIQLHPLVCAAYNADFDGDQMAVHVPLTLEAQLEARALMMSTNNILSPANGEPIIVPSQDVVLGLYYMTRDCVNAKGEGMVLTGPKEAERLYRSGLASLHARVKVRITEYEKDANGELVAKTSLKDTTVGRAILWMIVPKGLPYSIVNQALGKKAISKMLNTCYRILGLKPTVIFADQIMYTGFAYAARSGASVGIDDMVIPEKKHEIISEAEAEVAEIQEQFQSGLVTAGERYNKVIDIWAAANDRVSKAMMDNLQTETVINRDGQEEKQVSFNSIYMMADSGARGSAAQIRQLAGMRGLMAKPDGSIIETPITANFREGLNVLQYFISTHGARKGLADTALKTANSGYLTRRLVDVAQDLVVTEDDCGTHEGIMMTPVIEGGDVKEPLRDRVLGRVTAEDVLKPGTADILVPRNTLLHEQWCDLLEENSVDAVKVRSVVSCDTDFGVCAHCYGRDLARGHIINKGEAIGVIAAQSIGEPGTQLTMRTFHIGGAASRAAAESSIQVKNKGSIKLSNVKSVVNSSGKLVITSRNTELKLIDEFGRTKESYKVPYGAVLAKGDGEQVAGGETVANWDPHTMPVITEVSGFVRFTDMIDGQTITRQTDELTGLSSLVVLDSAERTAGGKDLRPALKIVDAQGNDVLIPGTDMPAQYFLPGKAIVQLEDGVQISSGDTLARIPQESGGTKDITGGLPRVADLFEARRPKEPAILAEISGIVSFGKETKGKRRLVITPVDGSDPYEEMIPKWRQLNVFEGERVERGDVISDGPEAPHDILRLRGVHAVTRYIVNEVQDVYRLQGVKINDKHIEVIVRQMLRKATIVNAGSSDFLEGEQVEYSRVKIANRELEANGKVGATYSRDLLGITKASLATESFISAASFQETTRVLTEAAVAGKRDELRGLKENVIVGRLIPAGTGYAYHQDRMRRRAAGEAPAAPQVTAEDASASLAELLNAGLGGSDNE
Sequence of purified RNA polymerase derived from E. coli (P0A7Z4 whole entry): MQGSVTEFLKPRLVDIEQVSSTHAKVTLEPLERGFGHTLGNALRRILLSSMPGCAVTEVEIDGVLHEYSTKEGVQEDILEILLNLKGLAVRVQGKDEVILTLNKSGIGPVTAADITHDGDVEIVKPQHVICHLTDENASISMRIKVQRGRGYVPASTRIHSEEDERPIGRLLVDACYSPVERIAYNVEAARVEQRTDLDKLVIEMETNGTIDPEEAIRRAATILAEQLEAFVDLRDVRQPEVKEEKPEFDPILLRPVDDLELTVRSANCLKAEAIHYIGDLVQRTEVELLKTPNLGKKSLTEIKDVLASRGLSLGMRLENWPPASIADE

`NCCNc1ccc([N+](=O)[O-])c(NCCOc2ccccc2)c1` [Compound (A), N^1-(2-aminoethyl)-4-nitro-N^3-(2-phenoxyethyl)-1,3-benzenediamine]: the concentration for half-maximal inhibition (IC50) (as a rule, the point on the concentration scale where inhibition reaches its midpoint) in experiment [1] (pTaq promoter template DNA, 60 minutes at 25° C., read-out: IC50 S. aureus RNA polymerase (converted)) is 12.6 µM; in experiment [2] (pTaq promoter template DNA, 60 minutes at 25° C., read-out: IC50 E. coli RNA polymerase (converted)), 25.3 µM; at human pol II (pTaq promoter template DNA, 60 minutes at 25° C., read-out: IC50 human pol II (converted)), 316 µM. Also, the minimum inhibitory concentration (MIC) – broadly, the least concentration at which growth counts as inhibited – came out at 6 µg/mL (≈ 19 µM) with wild-type S. aureus [3], 13 µg/mL (≈ 41.1 µM) with wild-type E. coli [4] and 13 µg/mL (≈ 41.1 µM) in experiment [5]. Also, the figures for the MBC (in the experiment on wild-type S. aureus [6]; in experiment [7]; in the experiment on wild-type E. coli [8]) were 25 µg/mL (≈ 79 µM), 25 µg/mL (≈ 79 µM) and 50 µg/mL (≈ 158 µM), respectively. For the same compound, the “selectivity for bacterial RNA polymerase relative to human RNA polymerase” value at human pol II (bacterial (S. aureus, E. coli) versus human RNA polymerase) was “highest degree of selectivity”.
Take `CC1(C)S[C@@H]2[C@H](NC(=O)[C@H](N)c3ccccc3)C(=O)N2[C@H]1C(=O)O` [Amp, Ampicillin, reference compound]: the minimum inhibitory concentration (MIC) with wild-type S. aureus [3] worked out at 8 µg/mL (≈ 22.9 µM); against wild-type E. coli [4] it was 2 µg/mL (≈ 5.72 µM); in experiment [5], 4 µg/mL (≈ 11.4 µM).
`CO[C@H]1/C=C/O[C@@]2(C)Oc3c(C)c(O)c4c(O)c(c(/C=N/N5CCN(C)CC5)c(O)c4c3C2=O)NC(=O)/C(C)=C\C=C\[C@H](C)[C@H](O)[C@@H](C)[C@@H](O)[C@@H](C)[C@H](OC(C)=O)[C@@H]1C` [Rif, rifampin, reference compound]: the MIC is < 0.03 µg/mL in experiment [9], < 0.03 µg/mL in the experiment on wild-type S. aureus [3], 4 µg/mL (≈ 4.86 µM) in the experiment on wild-type E. coli [4] and > 64 µg/mL in [5].
As to `NCCNc1ccc([N+](=O)[O-])c(N2CCN(c3ccc([N+](=O)[O-])cc3)CC2)c1` [Compound (B)], the MIC in experiment [9] is 4 µg/mL (≈ 10.4 µM); with wild-type S. aureus [3], 1 µg/mL (≈ 2.59 µM); in the experiment with wild-type E. coli [4], 8 µg/mL (≈ 20.7 µM); in [5], 2 µg/mL (≈ 5.18 µM). Besides, the IC50 in experiment [1] is 10.4 µM; in [2], 23.3 µM; at human pol II it was 104 µM. Further, the MBC – broadly, the lowest tested concentration that kills the bacteria rather than only halting them – with wild-type S. aureus [6] worked out at 8 µg/mL (≈ 20.7 µM); in [7], 2 µg/mL (≈ 5.18 µM); in the experiment on wild-type E. coli [8], 32 µg/mL (≈ 82.8 µM).
